The record followed here is patent US20180353501A1 (Arvinas, Inc., priority 2017, published 2018).

One assay has as its target T1, p38α (Homo sapiens, UniProt Q16539).
T1 construct: selectively degrades p38α, whereas exemplary PROTAC 46 (10-atom linker, phenyl attachment) selectively degrades p38δ in MDA-MB-231 cells; endogenous in cells; host or cells: MDA-MB-231
In words: Western blot survey of p38 isoform degradation in MDA-MB-231 cells (incl. proteasome rescue, CHX chase, washout). The assay is classed as cell-based. The conditions noted are these: for Dmax: read-out: p38α Dmax (maximum percentage of degradation achieved). The method, then: (§1) FIGS. 11A and 11B. Survey of p38 isoform degradation with foretinib-based VHL PROTACs (related to FIGS. 9A-9C and Table 13). (A) Western blots of amide series PROTACs tested in increasing concentrations (0.025, 0.100, 0.250, 1.0, 5.0 μM) on MDA-MB-231 cells, in duplicate. (B) Same as in (A) but with the phenyl series PROTACs. Summary table of the DC50 (concentration at which half-maximal degradation is achieved) and Dmax (maximum percentage of degradation achieved) is reported, per exemplary PROTAC, in Table 13.
(§2) FIGS. 13A, 13B, 13C, and 13D. Exemplary compounds 50 and 46 degrade p38 isoforms in a manner that is rapid, sustained, and proteasome-dependent. (A) MDA-MB-231 cells were either pre-treated or not with the proteasome inhibitor epoxomicin (1 μM) or the neddylation inhibitor MLN4924 (1 μM) for 30 minutes and subsequently treated with either vehicle (DMSO), exemplary compound 50 (250 nM), or exemplary compound 46 (250 nM) for 6 hours. (B) Quantitative real-time PCR was performed after 24 hours of treatment with either vehicle (DMSO), exemplary compound 50 (250 nM), or exemplary compound 46 (250 nM) in MDAMB-231 cells. The dotted line represents DMSO-treated conditions standardized to a value of 1.0 and mRNA abundance (per treatment group) is represented as a foldchange relative to that value. Data is based on biological duplicates and is normalized to beta-tubulin. (C) Cycloheximide (CHX) chase assay. MDA-MB-231 cells were pre-treated with 100 μg/mL CHX for 1 hour prior to treating for the indicated times with either vehicle (DMSO), exemplary compound 50 (250 nM), or exemplary compound 46 (250 nM). Tubulin-normalized p38α and p38δ abundance values are reported beneath individual lanes. (D) MDA-MB231 cells were treated with either vehicle (DMSO), exemplary compound 50 (250 nM), or exemplary compound 46 (250 nM) for 24 hours before re-plating onto new plastic in fresh medium for an additional 24, 48, or 72 hours (“washout” conditions).
(§3) Cell culture. MDA-MB-231 and HeLa cells were obtained from the American Type Culture Collection (ATCC), cultured in RPMI-1640 (1×) and DMEM (1×) medium, respectively, containing 10% fetal bovine serum (FBS) and 1% penicillin-streptomycin and grown in a humidified incubator at 37° C. and 5% CO2.
(§4) Lysates from MDA-MB-231 cells were washed once with ice cold PBS (1×), followed by lysis in buffer containing 25 mM Tris [pH 7.5], 0.25% sodium deoxycholate, 1% Triton X-100, supplemented with 1× protease inhibitor cocktail (Roche) and phosphatase inhibitors (10 mM NaF, 1 mM Na3VO4, and 20 mM β-glycerophosphate), unless otherwise noted. Lysates were spun at 14,000×g for 10 minutes at 4° C. and supernatant was evaluated for protein content using a Pierce BCA Protein Assay (Thermo Fisher Scientific). 25 to 50 μg of protein was loaded onto 10% SDS-PAGE gels or 4-20% Criterion TGX precast gradient gels (Bio-Rad), transferred to nitrocellulose membranes, and probed with the specified antibodies overnight at 4° C. in 1×TBS-Tween (Tris buffered saline plus 0.02% Tween 20) containing 5% non-fat milk. Immunoblots were visualized using a Bio-Rad ChemiDoc imaging instrument and subsequently processed and quantified using the accompanying Bio-Rad ImageLab software.
(§5) MDA-MB-231 cells were plated at 3×10^5 cells per well in a 6-well dish, allowed to adhere overnight, and switched to serum-free RPMI-1640 (1×) media for 16 hours. Cells were then pre-treated with cycloheximide (Sigma) at 100 μg mL^−1 for 1 hour prior to adding either vehicle (DMSO) or PROTAC (250 nM). At the indicated timepoints, cells were immediately placed on ice, rinsed with 1×PBS, lysed, and boiled.
(§6) MDA-MB-231 cells were plated at 1.5×10^5 cells per well in a 6-well dish and allowed to adhere overnight. On the following day, all cells were treated with either vehicle (DMSO) or PROTAC (250 nM). […]
On the technique in general: Immunoblotting shows a protein as a band on a membrane.

Another assay addresses T2, p38δ (Homo sapiens, UniProt O15264).
T2 construct: endogenous in cells; host or cells: MDA-MB-231 (intact cells for degradation; cleared cell lysate for CETSA)
T2 sequence (O15264 1-365): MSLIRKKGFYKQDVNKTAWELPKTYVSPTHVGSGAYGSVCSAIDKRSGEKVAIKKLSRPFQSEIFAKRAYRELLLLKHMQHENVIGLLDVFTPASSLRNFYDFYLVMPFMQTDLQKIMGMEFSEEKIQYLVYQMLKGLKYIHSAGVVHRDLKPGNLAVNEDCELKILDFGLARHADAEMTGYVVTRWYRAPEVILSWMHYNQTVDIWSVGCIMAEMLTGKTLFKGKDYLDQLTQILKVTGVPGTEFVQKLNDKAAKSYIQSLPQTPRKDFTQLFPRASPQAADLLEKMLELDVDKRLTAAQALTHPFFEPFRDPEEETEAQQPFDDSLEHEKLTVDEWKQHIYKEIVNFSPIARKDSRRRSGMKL
Described as above. The assay is classed as cell-based. The method, then: as §1, §2, §3, §4, §5, §6

The mark [1] stands for this setting: 250 nM 24 hours, then re-plated without compound.
Setting [2] is: 250 nM PROTAC 6 hours, pre-treated 1 μM epoxomicin or 1 μM MLN4924.
[3] abbreviates: MDA-MB-231 cells, western blot, read-out: p38α DC50 (concentration at which half-maximal degradation is achieved).

Like-named read-outs stand apart in the source and are kept apart here.

T1 sequence (Q16539 whole entry): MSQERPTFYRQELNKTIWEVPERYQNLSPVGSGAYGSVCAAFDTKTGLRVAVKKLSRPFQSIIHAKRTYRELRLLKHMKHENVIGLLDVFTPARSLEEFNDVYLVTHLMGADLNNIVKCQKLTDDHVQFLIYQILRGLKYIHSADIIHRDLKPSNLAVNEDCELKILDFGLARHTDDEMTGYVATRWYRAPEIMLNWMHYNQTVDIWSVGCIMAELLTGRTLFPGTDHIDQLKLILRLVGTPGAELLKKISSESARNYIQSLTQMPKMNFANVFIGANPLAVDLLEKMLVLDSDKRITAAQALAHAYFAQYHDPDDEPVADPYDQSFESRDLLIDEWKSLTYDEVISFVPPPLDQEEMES

Broadly, the Dmax is the largest share of the target that was removed. As for `COc1cc2c(Oc3ccc(NC(=O)C4(C(=O)Nc5ccc(F)cc5)CC4)cc3F)ccnc2cc1OCCOCCOCCOc1cc(-c2scnc2C)ccc1CNC(=O)[C@@H]1C[C@@H](O)CN1C(=O)[C@H](C(C)C)N1Cc2ccccc2C1=O` [compound 46], the DC50 was above 5000 nM at p38α (MDA-MB-231 cells, western blot, read-out: p38α DC50) and 79.2 ± 28 nM on p38δ (MDA-MB-231 cells, western blot). Further, the Dmax on p38α (MDA-MB-231 cells, western blot) is 35%; at p38δ (MDA-MB-231 cells, western blot) it was 98.4%. Moreover, the “p38δ degradation efficacy maintained post-washout” value at p38δ (setting [1]) was found to be 24 h. For the same compound, on p38δ (setting [2]), the “rescue of p38δ downregulation by proteasome / neddylation inhibitor” value was “completely rescued”. On p38δ (MDA-MB-231 cells, western blot), the “p38δ Dmax” value is on record as “Dmax = 98.4%”.

`COc1cc2c(Oc3ccc(NC(=O)C4(C(=O)Nc5ccc(F)cc5)CC4)cc3F)ccnc2cc1OCCCCOCCCCOCC(=O)N[C@H](C(=O)N1C[C@H](O)C[C@H]1C(=O)NCc1ccc(-c2scnc2C)cc1)C(C)(C)C` [compound 50, N-(3-fluoro-4-((7-(4-(4-(2-(((S)-1-((2S,4R)-4-hydroxy-2-((4-(4-methylthiazol-5-yl)benzyl)carbamoyl)pyrrolidin-1-yl)-3,3-dimethyl-1-oxobutan-2-yl)amino)-2-oxoethoxy)butoxy)buto-xy)-6-methoxyquinolin-4-yl)oxy)phenyl)-N-(4-fluorophenyl)cyclopropane-1,1-dicarboxa-mide]: the “p38α degradation efficacy maintained post-washout” value on p38α (setting [1]) was determined as 72 h. The “rescue of p38α downregulation by proteasome / neddylation inhibitor” value on p38α (setting [2]) is recorded as “completely rescued”. On p38α (MDA-MB-231 cells, western blot), the “p38α Dmax (maximum percentage of degradation achieved)” value is “Dmax = 99.6%”. For the same compound, the DC50 is 9.5 ± 1 nM at p38α (setting [3]) and above 5000 nM on p38δ (MDA-MB-231 cells, western blot). The Dmax was 99.6% at p38α (MDA-MB-231 cells, western blot) and 18.5% on p38δ (MDA-MB-231 cells, western blot).

As for `COc1cc2c(Oc3ccc(NC(=O)C4(C(=O)Nc5ccc(F)cc5)CC4)cc3F)ccnc2cc1OCCCOCCCOCCC(=O)N[C@H](C(=O)N1C[C@H](O)C[C@H]1C(=O)NCc1ccc(-c2scnc2C)cc1)C(C)(C)C` [Example 1], the DC50 on p38α (setting [3]) was 230 nM; on p38δ (MDA-MB-231 cells, western blot), above 5000 nM. Also, the greatest degradation seen (Dmax) turned out to be 83% at p38α (MDA-MB-231 cells, western blot) and 42% on p38δ (MDA-MB-231 cells, western blot).
